We go through four compounds from PMC3353181, “A gallotannin-rich fraction from Caesalpinia spinosa (Molina) Kuntze displays cytotoxic activity and raises sensitivity to doxorubicin in a leukemia cell line” (BMC Complementary and Alternative Medicine, 2012).

Structures are written as SMILES.

Usually IC50 stands for the point on the concentration scale where inhibition reaches its midpoint. High values mean a need for much substance, low ones inhibition by little substance.

Data set [1] deals with melanoma cells (RPMI-7951). Set-up: method as in PMID 1431932. The conditions noted are these: cited from earlier work.
In the next data set the test system is K562. Put plainly: P2Et adjuvant activity (MTT), K562. The format is cell-based, human. The settings on record: sub-optimal tested concentrations.
A further data set relates to PBMC. The data set is described as follows: MTT cytotoxicity assay, PBMC. In kind it is cell-based. The conditions noted are these: Homo sapiens, normal PBMC, concentration ± SE. From the text: (§1) The cell lines used as cancer cells were K562, a human erythroleukemia and MCF7, a human breast adenocarcinoma, from the American Type Culture Collection (ATCC); and the cell lines used as normal cells were human peripheral blood mononuclear cells (PBMC) and human fibroblasts obtained from normal healthy donors after informed consent was given. This project was approved by the ethics committee (founded in 2002) of the Science Faculty at a meeting on August 21, 2007. The culture conditions under which the cell lines were maintained have already been reported.
(§2) The cytotoxic effects of the fractions and conventional chemotherapeutic drugs (doxorubicin, etoposide, vincristine and taxol) were evaluated using normal and tumor cells by means of trypan blue and the methylthiazol tetrazolium (MTT) assay, as previously reported. The P2Et fraction was dissolve in ethanol and the corresponding vehicle was used as a negative control.
(§3) Figure 2 Induction of morphological changes and cytotoxicity in K562 cells by C. spinosa fractions without affecting normal human cells. […] Morphological changes were evaluated by direct observation using a light microscope at a magnification of 40X (B: 1. Ethanol; 2. S2Et; 3. P2Et; and 4. Etoposide). […]
(§4) Additionally, the cytotoxic activity of C. spinosa fractions was evaluated using gingival fibroblasts from the oral mucosa or normal human mononuclear cells. […]

The next data set concerns gingival fibroblasts. The data set is described as follows: MTT cytotoxicity assay, gingival fibroblasts. The format is cell-based. The conditions noted are these: Homo sapiens, Fibroblast, normal gingival fibroblasts, concentration ± SE.
Text: as §1, §2, §3, §4

A further data set concerns HL-60 cell line. More on the design: method as in PMID 10554885. The conditions noted are these: cited from earlier work.

Experimental for K562: P2Et fraction adjuvant activity was assessed using K562 and MCF7 cells in combination with the well-known cancer treatment drugs doxorubicin, vincristine, taxol and camptothecin. Cell viability was evaluated by means of the MTT assay. […] Results are expressed as cell viability percentage relative to the control (100 × Treatment OD/Negative control OD).
K562 (A) or MCF7 (B) cells were treated with the P2Et fraction or ethanol (negative control) for 6 h, washed and treated with doxorubicin (Dx), vincristine (Vt), camptothecin (Ct) or taxol (Tx) at the concentrations shown over a 48 h period. Cell cytotoxicity was estimated using the MTT assay. Data represent three independent experiments. *** (p < 0.001).

Take `O=C(O[C@H]1[C@H](O)C[C@](O)(C(=O)O)C[C@H]1OC(=O)c1cc(O)c(O)c(O)c1)c1cc(O)c(O)c(O)c1` [4,5-di-O-galloylquinic acid]: the “Cytotoxicity against melanoma cells” value in data set [1] was “moderate cytotoxicity”.

Regarding `COc1cccc2c1C(=O)c1c(O)c3c(c(O)c1C2=O)C[C@@](O)(C(=O)CO)C[C@@H]3O[C@H]1C[C@H](N)[C@H](O)[C@H](C)O1` [Doxorubicin], the “Effect on cell viability, used separately” value in the data set with K562 is “slight effect”.

Regarding `COc1cc([C@@H]2c3cc4c(cc3[C@@H](O[C@@H]3O[C@@H]5CO[C@@H](C)O[C@H]5[C@H](O)[C@H]3O)[C@H]3COC(=O)[C@H]23)OCO4)cc(OC)c1O` [Etoposide], the IC50 with PBMC and in the data set on gingival fibroblasts was > 200 µg/mL each time.

Consider `O=C(OC[C@H]1O[C@@H](OC(=O)c2cc(O)c(O)c(O)c2)[C@H](OC(=O)c2cc(O)c(O)c(O)c2)[C@@H](OC(=O)c2cc(O)c(O)c(O)c2)[C@@H]1OC(=O)c1cc(O)c(O)c(O)c1)c1cc(O)c(O)c(O)c1` [PGG, 1,2,3,4,6-penta-O-galloyl-β-D-glucose], for which the Induction of apoptosis result in the data set on HL-60 cell line is given as “able to induce caspase-mediated apoptosis”.
